Results from patent US20260174701A1, “HIGH STRENGTH SINGLE UNIT DOSE FORMULATIONS AND METHODS OF USE THEREOF” (Praxis Precision Medicines, Inc., priority 2023, published 2026).

Key:
animal model of ET = experiment: Animal model of ET; details: in vivo
CaV3.1 = CaV3.1 (Homo sapiens, UniProt O43497); experiment: In vitro electrophysiology studies; assay type: cell-based
CaV3.3 = CaV3.3 (Homo sapiens, UniProt Q9P0X4); experiment: In vitro electrophysiology studies; assay type: cell-based
Chain of CaV3.3 (Q9P0X4 whole entry): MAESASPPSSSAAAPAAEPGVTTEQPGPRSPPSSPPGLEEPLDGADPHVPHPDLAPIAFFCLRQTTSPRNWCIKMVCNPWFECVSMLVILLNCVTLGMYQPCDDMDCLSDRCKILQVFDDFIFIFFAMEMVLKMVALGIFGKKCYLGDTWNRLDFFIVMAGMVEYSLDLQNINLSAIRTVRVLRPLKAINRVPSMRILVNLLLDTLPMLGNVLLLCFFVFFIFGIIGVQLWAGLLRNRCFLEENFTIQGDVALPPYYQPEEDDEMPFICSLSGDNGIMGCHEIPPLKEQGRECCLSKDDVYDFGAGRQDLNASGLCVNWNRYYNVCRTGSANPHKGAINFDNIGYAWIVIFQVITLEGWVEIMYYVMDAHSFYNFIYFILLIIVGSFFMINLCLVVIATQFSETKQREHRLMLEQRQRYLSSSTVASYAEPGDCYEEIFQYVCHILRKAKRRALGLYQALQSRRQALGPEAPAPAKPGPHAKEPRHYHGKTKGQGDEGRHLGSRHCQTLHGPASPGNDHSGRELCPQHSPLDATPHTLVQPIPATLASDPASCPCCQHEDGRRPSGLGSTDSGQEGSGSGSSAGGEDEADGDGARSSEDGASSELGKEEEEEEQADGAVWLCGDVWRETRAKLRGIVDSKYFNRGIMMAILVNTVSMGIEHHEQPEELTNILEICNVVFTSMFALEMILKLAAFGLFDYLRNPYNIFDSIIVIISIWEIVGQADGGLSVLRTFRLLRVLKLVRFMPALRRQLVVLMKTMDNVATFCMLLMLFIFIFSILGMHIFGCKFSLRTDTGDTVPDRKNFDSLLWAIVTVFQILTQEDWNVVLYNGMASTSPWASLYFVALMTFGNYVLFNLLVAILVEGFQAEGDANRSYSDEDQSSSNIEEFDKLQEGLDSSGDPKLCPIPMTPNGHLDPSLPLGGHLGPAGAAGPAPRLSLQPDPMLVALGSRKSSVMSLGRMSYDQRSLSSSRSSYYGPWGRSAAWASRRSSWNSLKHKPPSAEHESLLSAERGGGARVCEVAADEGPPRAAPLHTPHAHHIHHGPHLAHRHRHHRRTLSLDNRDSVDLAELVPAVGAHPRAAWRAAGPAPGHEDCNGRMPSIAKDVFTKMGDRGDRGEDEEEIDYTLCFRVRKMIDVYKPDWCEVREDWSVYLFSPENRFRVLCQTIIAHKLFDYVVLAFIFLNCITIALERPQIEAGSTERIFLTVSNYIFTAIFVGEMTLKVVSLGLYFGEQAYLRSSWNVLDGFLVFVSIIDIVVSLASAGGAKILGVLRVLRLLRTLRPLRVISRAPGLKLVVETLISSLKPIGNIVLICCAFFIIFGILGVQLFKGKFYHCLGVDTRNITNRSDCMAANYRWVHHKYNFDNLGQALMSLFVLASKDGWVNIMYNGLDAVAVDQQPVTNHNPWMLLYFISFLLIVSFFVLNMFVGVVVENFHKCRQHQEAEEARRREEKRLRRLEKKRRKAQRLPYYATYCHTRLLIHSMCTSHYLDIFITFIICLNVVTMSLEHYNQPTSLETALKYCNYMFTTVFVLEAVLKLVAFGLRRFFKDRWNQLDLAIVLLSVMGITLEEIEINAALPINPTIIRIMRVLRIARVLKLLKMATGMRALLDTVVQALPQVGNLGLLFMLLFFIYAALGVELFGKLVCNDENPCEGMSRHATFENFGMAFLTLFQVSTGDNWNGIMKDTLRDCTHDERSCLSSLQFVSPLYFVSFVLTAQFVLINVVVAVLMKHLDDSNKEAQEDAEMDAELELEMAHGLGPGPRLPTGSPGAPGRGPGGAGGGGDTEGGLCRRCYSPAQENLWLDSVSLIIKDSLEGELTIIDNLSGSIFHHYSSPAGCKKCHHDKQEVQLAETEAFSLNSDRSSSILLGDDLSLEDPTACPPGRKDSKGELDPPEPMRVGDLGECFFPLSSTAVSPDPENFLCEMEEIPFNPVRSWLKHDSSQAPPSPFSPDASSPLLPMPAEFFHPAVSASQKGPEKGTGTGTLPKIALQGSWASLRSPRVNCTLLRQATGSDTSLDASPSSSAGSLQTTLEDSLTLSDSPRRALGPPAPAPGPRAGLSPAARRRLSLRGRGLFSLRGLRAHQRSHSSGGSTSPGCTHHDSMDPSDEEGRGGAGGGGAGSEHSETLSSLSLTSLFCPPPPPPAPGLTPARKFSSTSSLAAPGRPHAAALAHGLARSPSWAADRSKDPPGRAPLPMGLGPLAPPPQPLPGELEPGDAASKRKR

Chain of CaV3.1 (O43497 whole entry): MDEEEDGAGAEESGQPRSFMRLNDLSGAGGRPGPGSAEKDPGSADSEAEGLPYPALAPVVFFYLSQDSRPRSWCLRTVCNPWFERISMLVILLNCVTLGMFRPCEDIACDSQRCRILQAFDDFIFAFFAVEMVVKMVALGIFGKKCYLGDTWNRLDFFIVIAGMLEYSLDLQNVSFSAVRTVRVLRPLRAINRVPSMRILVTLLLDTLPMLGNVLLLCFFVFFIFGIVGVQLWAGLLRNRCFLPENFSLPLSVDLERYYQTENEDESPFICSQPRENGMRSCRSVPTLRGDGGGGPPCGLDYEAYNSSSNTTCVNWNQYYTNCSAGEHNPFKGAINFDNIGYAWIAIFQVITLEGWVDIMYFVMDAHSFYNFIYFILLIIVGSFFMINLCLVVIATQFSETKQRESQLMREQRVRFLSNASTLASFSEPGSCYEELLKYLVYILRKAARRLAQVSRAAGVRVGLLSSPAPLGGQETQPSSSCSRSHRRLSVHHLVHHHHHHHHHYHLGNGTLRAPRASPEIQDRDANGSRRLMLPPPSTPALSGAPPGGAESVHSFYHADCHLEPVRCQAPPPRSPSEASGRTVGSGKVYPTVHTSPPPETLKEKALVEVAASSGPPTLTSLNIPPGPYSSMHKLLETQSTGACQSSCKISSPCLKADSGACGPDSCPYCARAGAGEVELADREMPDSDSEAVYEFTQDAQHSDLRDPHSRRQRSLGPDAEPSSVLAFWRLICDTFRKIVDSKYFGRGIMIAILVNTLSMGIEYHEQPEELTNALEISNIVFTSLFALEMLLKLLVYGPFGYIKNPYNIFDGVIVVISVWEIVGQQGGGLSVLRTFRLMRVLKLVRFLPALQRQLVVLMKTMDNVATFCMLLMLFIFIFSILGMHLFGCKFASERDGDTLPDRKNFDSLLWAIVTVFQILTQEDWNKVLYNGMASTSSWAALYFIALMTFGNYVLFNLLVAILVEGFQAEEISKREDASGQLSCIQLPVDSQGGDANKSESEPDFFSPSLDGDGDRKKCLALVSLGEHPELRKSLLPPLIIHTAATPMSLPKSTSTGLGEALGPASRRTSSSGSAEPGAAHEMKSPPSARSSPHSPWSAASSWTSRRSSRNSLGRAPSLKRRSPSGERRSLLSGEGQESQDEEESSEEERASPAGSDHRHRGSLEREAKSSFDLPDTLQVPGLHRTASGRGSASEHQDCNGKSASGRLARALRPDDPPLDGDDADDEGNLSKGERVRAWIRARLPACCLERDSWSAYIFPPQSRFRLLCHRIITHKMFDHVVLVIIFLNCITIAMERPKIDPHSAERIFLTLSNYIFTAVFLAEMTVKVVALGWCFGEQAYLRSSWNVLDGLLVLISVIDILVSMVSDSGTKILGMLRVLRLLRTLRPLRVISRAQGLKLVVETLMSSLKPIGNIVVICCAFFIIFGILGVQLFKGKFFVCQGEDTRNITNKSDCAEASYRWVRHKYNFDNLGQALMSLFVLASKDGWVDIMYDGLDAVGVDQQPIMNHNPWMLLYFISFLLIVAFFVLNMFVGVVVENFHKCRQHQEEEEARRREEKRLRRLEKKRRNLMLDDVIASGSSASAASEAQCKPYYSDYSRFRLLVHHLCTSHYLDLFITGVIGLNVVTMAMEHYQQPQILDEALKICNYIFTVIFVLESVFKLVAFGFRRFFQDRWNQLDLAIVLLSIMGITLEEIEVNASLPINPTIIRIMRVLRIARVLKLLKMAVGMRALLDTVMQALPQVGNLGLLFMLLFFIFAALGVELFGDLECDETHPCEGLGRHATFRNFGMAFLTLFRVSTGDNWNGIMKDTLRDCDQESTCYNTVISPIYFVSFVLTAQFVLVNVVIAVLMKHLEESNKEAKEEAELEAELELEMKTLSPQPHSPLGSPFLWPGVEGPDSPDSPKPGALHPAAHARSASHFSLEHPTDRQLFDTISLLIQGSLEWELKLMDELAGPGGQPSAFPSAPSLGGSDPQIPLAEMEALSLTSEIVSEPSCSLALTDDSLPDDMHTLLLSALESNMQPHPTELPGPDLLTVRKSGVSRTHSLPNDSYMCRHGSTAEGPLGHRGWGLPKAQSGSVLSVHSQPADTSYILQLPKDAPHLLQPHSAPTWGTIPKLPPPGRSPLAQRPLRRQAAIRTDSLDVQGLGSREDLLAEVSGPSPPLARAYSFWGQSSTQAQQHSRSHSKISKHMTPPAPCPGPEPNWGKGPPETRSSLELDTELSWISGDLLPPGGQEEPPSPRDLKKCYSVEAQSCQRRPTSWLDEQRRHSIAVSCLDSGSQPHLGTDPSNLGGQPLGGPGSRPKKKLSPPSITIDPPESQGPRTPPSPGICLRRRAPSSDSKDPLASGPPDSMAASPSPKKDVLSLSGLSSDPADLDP

## CC(C)(C)NC(=O)CN1CCC(CNC(=O)c2cc(F)cc(Cl)c2)CC1.Cl [PRAX-944, N-((1-(2-(tert-butylamino)-2-oxoethyl)piperidin-4-yl)methyl)-3-chloro-5-fluorobenzamide hydrochloride]
Animal model of ET
  Activity in an animal model of ET: robust activity
CaV3.1
  Potency for T-type Ca2+ channels: nanomolar
CaV3.3
  Potency for T-type Ca2+ channels: nanomolar
